“Also recorded” adds a separate entry of the source.

We go through 6 compounds from paper PMC7187413 (Journal of medicinal chemistry, 2020).

One test addresses WDR5 (Homo sapiens, UniProt P61964). The test is described as follows: Competition fluorescence polarization-based assay.
In the next test the target is WDR5-MYC complex (Homo sapiens, UniProt P61964). Nature of the test: Co-IP target engagement in whole. It is filed as cell-based. As to conditions: transformed HEK293 cells, 5 μM compound, 24 h.
Test [1] deals with MLL-1 in the full WDR5, RBBP5, ASH2L, and DPY30 (WRAD) complex (Homo sapiens, UniProt P61964). Nature of the test: Biochemical histone methyltransferase assay. As to conditions: Supplemental Table 4.
The subject of another test is MYC bound to chromatin. The test is described as follows: ChIP-qPCR of MYC binding to target genes in c-MYC-HA overexpressing HEK293 cells. The conditions noted are these: 20 μM, 10 h. It is filed as cell-based, human.
The test system of test [2] is WDR5 binding to chromatin. Nature of the test: ChIP of WDR5 binding to chromatin at MYC target genes in HEK293 cells. The class given is cell-based, human. The conditions noted are these: cells treated with 12 versus N.C.

Turning to “5-Bromo-3-chloro-N-(1-cyclopentyl-2-(4-(pyrrolidin-3-yl)piperidine-1-carbonyl)-1H-imidazol-4-yl)-2-hydroxybenzenesulfonamide [Compound 9]”, at WDR5 (read-out: FPA Kd, competition with FITC-labeled small molecule, average of at least 3 independent replicates ± standard deviation), the Kd was 5 ± 1 µM.

In the case of `O=S(=O)(Nc1cn(C2CCCC2)cn1)c1cc(Br)cc(Cl)c1O` [Compound 2i, 5-Bromo-3-chloro-N-(1-cyclopentyl-1H-imidazol-4-yl)-2-hydroxybenzenesulfonamide], on WDR5-MYC complex, the “WDR5-MYC complex formation in whole cells relative to DMSO” value is listed as “decreased complex formation”. In addition, at WDR5 (FPA Kd relative to 2a), the “fold improvement in the binding affinity compared to 2a” value came to 2.5 fold.

As for `O=S(=O)(Nc1cnn(C2CCCC2)c1)c1cc(Br)cc(Cl)c1O` [Compound 3d, 5-Bromo-3-chloro-N-(1-cyclopentyl-1H-pyrazol-4-yl)-2-hydroxybenzenesulfonamide], the “inhibition of histone methyltransferase activity of MLL-1” value in test [1] is given as “inhibited”. The same measure, in the same setting: in the case of `CCOC(=O)c1nc(NS(=O)(=O)c2cc(Br)cc(Cl)c2O)cn1C1CCCC1` [Compound 6, Ethyl 4-((5-bromo-3-chloro-2-hydroxyphenyl)sulfonamido)-1-cyclopentyl-1H-imidazole-2-carboxylate] it was “inhibited”; in that of `CNC(=O)c1nc(NS(=O)(=O)c2cc(Br)cc(Cl)c2O)cn1C1CCCC1` [Compound 8, 4-((5-Bromo-3-chloro-2-hydroxyphenyl)sulfonamido)-1-cyclopentyl-N-methyl-1H-imidazole-2-carboxamide], “inhibited”.

Consider `CS(=O)(=O)c1nc(NS(=O)(=O)c2cc(Br)cc(Cl)c2O)cn1C1CCCC1` [Compound 12], for which the “amount of MYC at loci where MYC recruitment is dependent on WDR5” value with MYC bound to chromatin (C7orf40, RNPS1, RPS14, RPL5) is given as “reduction in the amount of MYC; also recorded: reduce the amount of MYC bound to chromatin”. The “amount of MYC at sites where MYC binding is independent of WDR5” value in the test on MYC bound to chromatin (ZFPM1 and ZNF771) is recorded as “remained nearly unaffected; also recorded: did not affect binding of MYC”. Also, the “WDR5 binding to chromatin at MYC target loci” value in test [2] is recorded as “comparable levels”. Besides, the “inhibition of histone methyltransferase activity of MLL-1” value in test [1] was “inhibited”.
